In ChEMBL document CHEMBL3112395, “Synthesis and structure-activity relationship studies of N-terminal analogues of the antimicrobial peptide tridecaptin A(1)” (J Med Chem, 2014):
≈ marks a conversion by molar mass, not a printed value.

Legend:
Acinetobacter baumannii = assay: Antibacterial activity against Acinetobacter baumannii ATCC 19606 assessed as growth inhibition by broth dilution method; type: functional
Staphylococcus aureus = assay: Antibacterial activity against Staphylococcus aureus ATCC 29213 assessed as growth inhibition by broth dilution method; type: functional
Enterococcus faecalis = assay: Antibacterial activity against Enterococcus faecalis ATCC 29212 assessed as growth inhibition by broth dilution method; type: functional
Enterococcus faecium = assay: Antibacterial activity against Enterococcus faecium ATCC 19434 assessed as growth inhibition by broth dilution method; type: functional
Campylobacter jejuni = assay: Antibacterial activity against Campylobacter jejuni NCTC 11168 assessed as growth inhibition by broth dilution method; type: functional
Salmonella enterica = assay: Antibacterial activity against Salmonella enterica ATCC 13311 assessed as growth inhibition by broth dilution method; type: functional
Klebsiella pneumoniae [1] = assay: Antibacterial activity against Klebsiella pneumoniae ATCC 13883 assessed as growth inhibition by broth dilution method; type: functional
[2] = Hemolytic activity in rabbit erythrocytes at 83 ug/mL after 30 mins relative to control; type: ADME, cell-based, Oryctolagus cuniculus, Erythrocyte; details: read-out: Activity
Listeria monocytogenes = assay: Antibacterial activity against Listeria monocytogenes ATCC […] assessed as growth inhibition by broth dilution method; type: functional
Pseudomonas aeruginosa = assay: Antibacterial activity against Pseudomonas aeruginosa ATCC 27853 assessed as growth inhibition by broth dilution method; type: functional
Escherichia coli [3] = assay: Antibacterial activity against Escherichia coli ATCC 25922 assessed as growth inhibition by broth dilution method; type: functional
[4] = Cytotoxicity against HEK293 cells assessed as growth inhibition after 48 hrs by MTT assay; type: cell-based; details: human, read-out: MIC
Klebsiella pneumoniae [5] = assay: Antibacterial activity against multi-drug resistant Klebsiella pneumoniae KpCG clinical isolate assessed as growth inhibition by broth dilution method; type: functional
Enterobacter cloacae = assay: Antibacterial activity against multi-drug resistant Enterobacter cloacae 849 clinical isolate assessed as growth inhibition by broth dilution method; type: functional
Escherichia coli [6] = assay: Antibacterial activity against Escherichia coli O157:H7 assessed as growth inhibition by broth dilution method; type: functional
[7] = Antibacterial activity against multi-drug resistant Clostridium difficile 630 assessed as growth inhibition by broth dilution method; type: functional, Clostridioides difficile 630; details: Clostridioides difficile

With `CC[C@H](C)[C@@H](NC(=O)[C@@H](NC(=O)[C@H](CCC(=O)O)NC(=O)[C@H](Cc1ccccc1)NC(=O)[C@@H](CCN)NC(=O)[C@H](CCN)NC(=O)[C@H](CO)NC(=O)[C@@H](Cc1c[nH]c2ccccc12)NC(=O)[C@@H](CO)NC(=O)CNC(=O)[C@@H](CCN)NC(=O)[C@H](N)C(C)C)C(C)C)C(=O)N[C@@H](C)C(=O)O` the MIC (Acinetobacter baumannii) was over 100 µg/mL, the MIC (Staphylococcus aureus) was over 100 µg/mL and the MIC (Enterococcus faecalis) was over 100 µg/mL. The MIC (Enterococcus faecium) was over 100 µg/mL, the MIC (Campylobacter jejuni) was over 100 µg/mL and the MIC (Salmonella enterica) was 100 µg/mL (≈ 71.7 µM). The MIC (Klebsiella pneumoniae [1]) was 50 µg/mL (≈ 35.9 µM), the hemolysis at 0.5 h, 83 ug/mL [2] was 0.5% and the MIC (Listeria monocytogenes) was over 100 µg/mL. The MIC (Pseudomonas aeruginosa) was 100 µg/mL (≈ 71.7 µM) and the MIC (Escherichia coli [3]) was 100 µg/mL (≈ 71.7 µM).
`CCCC(=O)N[C@@H](C(=O)N[C@H](CCN)C(=O)NCC(=O)N[C@H](CO)C(=O)N[C@H](Cc1c[nH]c2ccccc12)C(=O)N[C@@H](CO)C(=O)N[C@@H](CCN)C(=O)N[C@H](CCN)C(=O)N[C@@H](Cc1ccccc1)C(=O)N[C@@H](CCC(=O)O)C(=O)N[C@H](C(=O)N[C@@H](C(=O)N[C@@H](C)C(=O)O)[C@@H](C)CC)C(C)C)C(C)C` gave an MIC (Acinetobacter baumannii) of 100 µg/mL (≈ 68.3 µM), an MIC (Staphylococcus aureus) of over 100 µg/mL and an MIC (Enterococcus faecalis) of over 100 µg/mL. It also gave an MIC (Enterococcus faecium) of over 100 µg/mL, an MIC (Campylobacter jejuni) of 12.5 µg/mL (≈ 8.53 µM) and an MIC (Salmonella enterica) of 25 µg/mL (≈ 17.1 µM). For the same compound, the MIC (Klebsiella pneumoniae [1]) was 25 µg/mL (≈ 17.1 µM), the hemolysis at 0.5 h, 83 ug/mL [2] was 0.8% and the MIC (Listeria monocytogenes) was over 100 µg/mL. It also gave an MIC (Pseudomonas aeruginosa) of over 100 µg/mL and an MIC (Escherichia coli [3]) of 12.5 µg/mL (≈ 8.53 µM).
`CC[C@H](C)CC[C@@H](O)CC(=O)N[C@@H](C(=O)N[C@H](CCN)C(=O)NCC(=O)N[C@H](CO)C(=O)N[C@H](Cc1c[nH]c2ccccc12)C(=O)N[C@@H](CO)C(=O)N[C@@H](CCN)C(=O)N[C@H](CCN)C(=O)N[C@@H](Cc1ccccc1)C(=O)N[C@@H](CCC(=O)O)C(=O)N[C@H](C(=O)N[C@@H](C(=O)N[C@@H](C)C(=O)O)[C@@H](C)CC)C(C)C)C(C)C` showed an MIC (Acinetobacter baumannii) of 12.5 µg/mL (≈ 8.06 µM), an MIC (Staphylococcus aureus) of over 100 µg/mL and an MIC (Enterococcus faecalis) of over 100 µg/mL. The MIC (Enterococcus faecium) was over 100 µg/mL, the MIC (Campylobacter jejuni) was 1.56 µg/mL (≈ 1.01 µM) and the MIC (Salmonella enterica) was 6.25 µg/mL (≈ 4.03 µM). It also gave an MIC (Klebsiella pneumoniae [1]) of 3.13 µg/mL (≈ 2.02 µM), an MCC at 48 h [4] of 200 µg/mL and a hemolysis at 0.5 h, 83 ug/mL [2] of 3.2%. For the same compound, the MIC (Listeria monocytogenes) was 50 µg/mL (≈ 32.2 µM), the MIC (Pseudomonas aeruginosa) was 50 µg/mL (≈ 32.2 µM) and the MIC (Escherichia coli [3]) was 3.13 µg/mL (≈ 2.02 µM).
With `CCCCCCCCCCCC(=O)N[C@@H](C(=O)N[C@H](CCN)C(=O)NCC(=O)N[C@H](CO)C(=O)N[C@H](Cc1c[nH]c2ccccc12)C(=O)N[C@@H](CO)C(=O)N[C@@H](CCN)C(=O)N[C@H](CCN)C(=O)N[C@@H](Cc1ccccc1)C(=O)N[C@@H](CCC(=O)O)C(=O)N[C@H](C(=O)N[C@@H](C(=O)N[C@@H](C)C(=O)O)[C@@H](C)CC)C(C)C)C(C)C` the MIC (Acinetobacter baumannii) was 50 µg/mL (≈ 31.7 µM), the MIC (Staphylococcus aureus) was over 100 µg/mL and the MIC (Enterococcus faecalis) was over 100 µg/mL. For the same compound, the MIC (Enterococcus faecium) was 100 µg/mL (≈ 63.4 µM), the MIC (Campylobacter jejuni) was 0.4 µg/mL (≈ 0.254 µM) and the MIC (Salmonella enterica) was 50 µg/mL (≈ 31.7 µM). The MIC (Klebsiella pneumoniae [1]) was 12.5 µg/mL (≈ 7.93 µM), the hemolysis at 0.5 h, 83 ug/mL [2] was 82.2% and the MIC (Listeria monocytogenes) was 50 µg/mL (≈ 31.7 µM). For the same compound, the MIC (Pseudomonas aeruginosa) was over 100 µg/mL and the MIC (Escherichia coli [3]) was 12.5 µg/mL (≈ 7.93 µM).
In the case of `CC[C@H](C)[C@@H](NC(=O)[C@@H](NC(=O)[C@H](CCC(=O)O)NC(=O)[C@H](Cc1ccccc1)NC(=O)[C@@H](CCN)NC(=O)[C@H](CCN)NC(=O)[C@H](CO)NC(=O)[C@@H](Cc1c[nH]c2ccccc12)NC(=O)[C@@H](CO)NC(=O)CNC(=O)[C@@H](CCN)NC(=O)[C@H](NC(=O)OCC1c2ccccc2-c2ccccc21)C(C)C)C(C)C)C(=O)N[C@@H](C)C(=O)O`, the MIC (Acinetobacter baumannii) is reported as 12.5 µg/mL (≈ 7.73 µM), the MIC (Staphylococcus aureus) is reported as 100 µg/mL (≈ 61.8 µM) and the MIC (Enterococcus faecalis) is reported as 50 µg/mL (≈ 30.9 µM). The MIC (Enterococcus faecium) was 25 µg/mL (≈ 15.5 µM), the MIC (Campylobacter jejuni) was 0.78 µg/mL (≈ 0.482 µM) and the MIC (Salmonella enterica) was 6.25 µg/mL (≈ 3.87 µM). For the same compound, the MIC (Klebsiella pneumoniae [1]) was 6.25 µg/mL (≈ 3.87 µM), the hemolysis at 0.5 h, 83 ug/mL [2] was 100% and the MIC (Listeria monocytogenes) was 12.5 µg/mL (≈ 7.73 µM). It also gave an MIC (Pseudomonas aeruginosa) of over 100 µg/mL and an MIC (Escherichia coli [3]) of 6.25 µg/mL (≈ 3.87 µM).
`CCCCCCCC(=O)N[C@@H](C(=O)N[C@H](CCN)C(=O)NCC(=O)N[C@H](CO)C(=O)N[C@H](Cc1c[nH]c2ccccc12)C(=O)N[C@@H](CO)C(=O)N[C@@H](CCN)C(=O)N[C@H](CCN)C(=O)N[C@@H](Cc1ccccc1)C(=O)N[C@@H](CCC(=O)O)C(=O)N[C@H](C(=O)N[C@@H](C(=O)N[C@@H](C)C(=O)O)[C@@H](C)CC)C(C)C)C(C)C` showed an MIC (Acinetobacter baumannii) of 12.5 µg/mL (≈ 8.22 µM), an MIC (Staphylococcus aureus) of 100 µg/mL (≈ 65.8 µM) and an MIC (Enterococcus faecalis) of 100 µg/mL (≈ 65.8 µM). The MIC (Klebsiella pneumoniae [5]) was 2.33 µg/mL (≈ 1.53 µM), the MIC (Enterococcus faecium) was 50 µg/mL (≈ 32.9 µM) and the MIC (Campylobacter jejuni) was 0.78 µg/mL (≈ 0.513 µM). The MIC (Salmonella enterica) was 6.25 µg/mL (≈ 4.11 µM), the MIC (Enterobacter cloacae) was 0.43 µg/mL (≈ 0.283 µM) and the MIC (Klebsiella pneumoniae [1]) was 3.13 µg/mL (≈ 2.06 µM). It also gave an MCC at 48 h [4] of 100 µg/mL, an MIC (Escherichia coli [6]) of 0.43 µg/mL (≈ 0.283 µM) and an MIC [7] of 12.7 µg/mL (≈ 8.35 µM). It also gave a hemolysis at 0.5 h, 83 ug/mL [2] of 4.7%, an MIC (Listeria monocytogenes) of 25 µg/mL (≈ 16.4 µM) and an MIC (Pseudomonas aeruginosa) of 25 µg/mL (≈ 16.4 µM). It also gave an MIC (Escherichia coli [3]) of 3.13 µg/mL (≈ 2.06 µM).
Work on `CCCCCCCCCCC(=O)N[C@@H](C(=O)N[C@H](CCN)C(=O)NCC(=O)N[C@H](CO)C(=O)N[C@H](Cc1c[nH]c2ccccc12)C(=O)N[C@@H](CO)C(=O)N[C@@H](CCN)C(=O)N[C@H](CCN)C(=O)N[C@@H](Cc1ccccc1)C(=O)N[C@@H](CCC(=O)O)C(=O)N[C@H](C(=O)N[C@@H](C(=O)N[C@@H](C)C(=O)O)[C@@H](C)CC)C(C)C)C(C)C` yielded an MIC (Acinetobacter baumannii) of 12.5 µg/mL (≈ 8 µM), an MIC (Staphylococcus aureus) of over 100 µg/mL and an MIC (Enterococcus faecalis) of over 100 µg/mL. The MIC (Enterococcus faecium) was 100 µg/mL (≈ 64 µM), the MIC (Campylobacter jejuni) was 0.4 µg/mL (≈ 0.256 µM) and the MIC (Salmonella enterica) was 12.5 µg/mL (≈ 8 µM). The MIC (Klebsiella pneumoniae [1]) was 6.25 µg/mL (≈ 4 µM), the MIC (Listeria monocytogenes) was 25 µg/mL (≈ 16 µM) and the MIC (Pseudomonas aeruginosa) was over 100 µg/mL. For the same compound, the MIC (Escherichia coli [3]) was 6.25 µg/mL (≈ 4 µM).
